Test results as given in patent US6096314A, “Peptides and pharmaceutical compositions comprising them” (Yeda Research and Development Co. Ltd., priority 1994, dated 2000).

Columns and labels:
anti-idiotypic T cells = test: Treatment with p277 in IFA, proliferation of spleen cells to C9VDJ peptide (FIG. 9); type: in vivo; settings: NOD female mice, 12 weeks old, treated in IFA subcutaneously; 2 or 5 weeks after treatment
Protocol: FIGS. 4A and B Spontaneous anti-idiotypic responses in naive female (FIG. 4A) and male (FIG. 4B) NOD mice. T cell responses to hsp60 (idiotype) and to the C9 clone (anti-idiotype) were measured in naive female and male NOD mice. Ten female and 10 male NOD mice were sacrificed at 4, 6, 8, 10, 13 and 21 week of age and their spleens were taken for a T cell proliferative assay. Spleen cells were tested at 200,000 cells/0.2 cc in microtiter wells for proliferative responses to either human hsp60 (5 μg/ml) or the C9 clone (20,000 cells/well irradiated at 5000 rad). The a proliferative response was measured by adding 3H-thymidine to the culture for the last 16 h of a 72 h stimulation. The incorporated 3H-thymidine was measured on a β-counter and the stimulation index (SI) was calculated as cpm incorporation in the presence of antigen/cpm incorporation in the absence of antigen. Individual mice were tested separately and the mean±SD for each time point was calculated.
NOD female mice, 12 weeks old, were immunized with p277 or p278 in IFA, […] per mouse subcutaneously, or left untreated 10 mice per group. At 2 or 5 weeks after treatment 5 mice of each group were sacrificed their spleens removed and tested individually in a proliferation assay to C9VDJ peptide 5 μg/ml, as described in FIG. 4.

NOD mice = settings: references (3), (4); cited from earlier work

Sequence: VLGGGCALLRCIPALDSLTPANED [p277]
- Anti-C9 response (proliferation to C9VDJ peptide 5 μg/ml) (anti-idiotypic T cells): induces anti-C9 response
- Effect of vaccination on diabetes (NOD mice): prevent (3) or even reverse diabetes
